“Also recorded” adds a separate entry of the source.
Legend:
[1] = test system: human pancreatic ductal tissue cultures; assay: Insulin production in human pancreatic ductal tissue cultures, ELISA; assay type: cell-based; settings: for insulin production vs Peptide 4 (hamster INGAP) and Peptide 5 (scrambled) (FIG. 4): after 10 days, Rosenberg protocol, samples 5 μg total protein in duplicate; for insulin production vs hamster INGAP and scrambled control (FIG. 7A): two concentrations of peptide (3 μM and 1 mM)
Procedure: (§1) Human pancreatic tissue was treated as described in Example 1 and Insulin production was measured by ELISA assay. FIGS. 4 and 5 show the results of this experiment to show a dose response and to again compare the effect of HIP on the two different fractions of tissue as compared to the hamster INGAP sequence and a scrambled negative peptide sequence. […] The results in FIG. 4 involve the use of 5 μg of each peptide, while the results in FIG. 5 were acquired using 0.002 μg of each peptide.

[2] = test system: human pancreatic islet tissue; assay: Insulin production in human pancreatic islet tissue culture, radioimmunoassay; assay type: cell-based; settings: 1 mM for a final culture concentration of 500 nM
Procedure: (§2) Human pancreatic islet and progenitor fractions were cultured over 10 days, according to standard protocol. Briefly, pancreata from adult human cadaveric organ donors were obtained through the local organ procurement organization. Islets were isolated according to established protocols described by Bonner-Weir and Jamal. (Bonner-Weir et al., Pediatric Diabetes: 2004; 5(Suppl 2):16-22. Jamal et al., Cell Death Differ. 2005 July; 12(7):702-12).
(§3) Following removal of the organ, cold ischemia time was no more than 8 hours prior to islet isolation. The main pancreatic duct was cannulated and perfused with Liberase HI (Roche Diagnostics). The perfused organ was placed in a closed system (Ricordi Apparatus) and heated to 37° C. to activate the enzyme blend. Following the appearance of free islets in samples, the system was cooled and free tissues were collected and washed. Tissues were applied to a continuous density gradient created using Ficoll (Biochrom KG) in a cell processor (COBE). Free islets with diameters ranging from 75 to 400 μm, determined to be greater than 90% pure by staining with dithizone (Sigma) a zinc chelater, were collected and washed. IHC to detect the presence of amylase and cytokeratin was negative, consistent with the absence of progenitor and exocrine tissue. The progenitor fraction from this separation was also collected for culture.
(§4) Isolated islets were embedded in a type 1 collagen matrix at a density of 2000 islet equivalents/25 cm^2 and cultured in DMEM/F12 containing 10% FBS, 1 μM dexamethasone, 10 ng/ml EGF, 24 mU/ml insulin and 100 ng/ml cholera toxin. Medium was changed every other day. On day 10, culture was continued in the above medium, without the cholera toxin, with neogenic agents and inhibitors at the final concentrations listed below. Medium was changed every other day. Collagen-embedded cultures were harvested by incubating with 0.25 g/L collagenase XI (Sigma) for 30 minutes at 37° C. […]
(§5) Insulin levels were detected by Radioimmunoassay (RIA) from cultures treated with saline only, scrambled peptide, SEQ ID NOs: 7, 3 or 2 and hamster INGAP. […]

[3] = test system: human pancreatic ductal tissue culture; assay: Insulin production in human pancreatic ductal tissue culture, radioimmunoassay; assay type: cell-based; settings: 3.3 μM (final culture concentration of 165 nM)
Procedure: as §2, §3, §4, §5

[4] = test system: human pancreatic islet tissue cultures; assay: Insulin production in human pancreatic islet tissue cultures, ELISA; assay type: cell-based; settings: for insulin production vs Peptide 4 (hamster INGAP) and Peptide 5 (scrambled) (FIG. 5): after 10 days, Rosenberg protocol, 0.002 μg of each peptide in duplicate; for insulin production vs hamster INGAP and scrambled control (FIG. 7B): two concentrations of peptide (3 μM and 1 mM)
Procedure: as §1

[5] = test system: NOD mice; assay: HIP treatment of non-obese diabetic (NOD) mice; assay type: in vivo, mouse; settings: HIP 1 μg/kg/day to 100 mg/kg/day, protocol example
Source text: Animal Model. The non-obese diabetic (NOD) mouse strain has long been studied as an excellent model of type 1 diabetes because it spontaneously develops a disease that is very similar to the human condition. Delovitch, T. L., and Singh, B. 1997. Immunity. 7:727-738. Diabetes in NOD mice is mediated by inflammatory autoreactive T cells that recognize pancreatic islet antigens and escape central and peripheral tolerance.
Procedure: In a parental colony of NOD mice, incidence of diabetes in female NOD mice is typically 75-90% by 30 weeks but may exceed 90% in some cohorts. […] Doses of HIP range from 1 μg/kg/day to 100 mg/kg/day.
Treatment. Cohorts are treated in 2 arms with 2-4 dose ranges of HIP and a placebo, at a compensated dose for animal size, metabolism and circulation, or about 1/6 the mg/kg equivalence. Arm 1: saline, Arm 2: HIP.
Study Assessment. Blood glucose levels are measured every week with a One Touch II glucose meter (Lifescan). Mice are considered diabetic after 2 consecutive measurements over 300 mg/dl. For histological analysis, pancreases are snap-frozen. Multiple 5-μm sections are stained with hematoxylin and eosin and scored blindly for severity of insulitis as known in the art.

[6] = test system: human pancreatic progenitor cells; assay: Islet generation in human ductal tissue culture, inverted microscopy; assay type: cell-based; settings: ductal/progenitor tissue fraction culture treated with HIP; listed as HIP
Procedure: A human ductal tissue fraction was isolated and cultured as described in Example 1. After 10 days of culture, cells were treated with HIP for four days and observed using inverted microscopy. […] Islets have formed what has previously been described as ductal epithelial cysts and are starting to bud at one end where a progenitor cell resides. […] In this panel the darkening of the budding portion of the ductal epithelial cyst indicates the differentiation of cells consistent with previously shown changes that occur with hamster INGAP treatment in vitro.

[7] = test system: type 1 patients; settings: cited from earlier work
[8] = test system: diabetic patients; settings: cited from earlier work
[9] = dosages up to 10,000 IU/day; cited from earlier work

| Molecule | insulin production vs Peptide 4 (hamster INGAP) and Peptide 5 (scrambled) (FIG. 4) [1] | insulin production vs hamster INGAP and scrambled control (FIG. 7A) [1] | insulin production vs INGAP peptide and scrambled negative control (FIG. 2) [2] | insulin production vs INGAP peptide and scrambled negative control (FIG. 1) [3] | insulin production vs Peptide 4 (hamster INGAP) and Peptide 5 (scrambled) (FIG. 5) [4] | insulin production vs hamster INGAP and scrambled control (FIG. 7B) [4] | also measured |
| --- | --- | --- | --- | --- | --- | --- | --- |
| WIGLHDPTQGTEPNG [HIP1] | increased insulin production | increased insulin production | increased insulin production | increased insulin production | increased insulin production | increased insulin production |  |
| IGLHDPTQGTEPNGE (listed as Homo sapiens) [HIP3] | increased insulin production | increased insulin production | increased insulin production | increased insulin production | increased insulin production | increased insulin production | blood glucose levels [5]: pronounced reduction; insulitis in pancreases (histology) [5]: decreased showing of insulinitis; new islet structure formation in culture (micrographs) [6]: Morphological changes show islet like structure; also recorded: New islet structure has formed; also recorded: forming a nidus of new insulin producing islets; also recorded: forming insulin producing islet like structure |
| IGLHDPTQGTEPNG (listed as Homo sapiens) [HIP2] | increased insulin production | increased insulin production | increased insulin production | increased insulin production | increased insulin production | increased insulin production |  |
| CC[C@H](C)[C@H](NC(=O)[C@@H]1CCCN1C(=O)CNC(=O)[C@H](Cc1ccccc1)NC(=O)[C@H](CC(N)=O)NC(=O)[C@H](CC(N)=O)NC(=O)[C@H](CO)NC(=O)[C@H](CO)NC(=O)[C@H](Cc1c[nH]cn1)NC(=O)[C@@H](NC(=O)[C@H](CC(C)C)NC(=O)[C@H](Cc1ccccc1)NC(=O)[C@H](CC(N)=O)NC(=O)[C@H](C)NC(=O)[C@H](CC(C)C)NC(=O)[C@H](CCCNC(=N)N)NC(=O)[C@H](CCC(N)=O)NC(=O)[C@@H](NC(=O)[C@H](C)NC(=O)[C@@H]1CSSC[C@H](NC(=O)[C@@H](N)CCCCN)C(=O)N[C@@H](CC(N)=O)C(=O)N[C@@H]([C@@H](C)O)C(=O)N[C@@H](C)C(=O)N[C@@H]([C@@H](C)O)C(=O)N1)[C@@H](C)O)C(C)C)C(=O)N[C@@H](CC(C)C)C(=O)N1CCC[C@H]1C(=O)N1CCC[C@H]1C(=O)N[C@H](C(=O)N[C@@H](CC(N)=O)C(=O)N[C@H](C(=O)NCC(=O)N[C@@H](CO)C(=O)N[C@@H](CC(N)=O)C(=O)N[C@H](C(=O)N[C@@H](Cc1ccc(O)cc1)C(N)=O)[C@@H](C)O)C(C)C)[C@@H](C)O [Pramlintide] |  |  |  |  |  |  | glycemic excursions and pre-meal insulin requirements [7]: reduce glycemic excursions |
| IGLHDPSHGTLPNGS (listed as Hamster sp.) [hamster INGAP] |  |  |  |  |  |  | patients with a >50% increase in GAD65 antibody titers ([8]; 300 mg/day treatment group, Phase II study): 22%; C-peptide secretion ([8]; 600 mg/day): increase; effectiveness ([8]; Phase II trial): Little effectiveness; patient drop out due to discomfort and bruising at injection site ([8]; human, in vivo): high drop out; tolerability ([8]; human, in vivo): well tolerated; hemoglobin A1C ([8]; type 2 diabetes patients): fell |
| C=C1CC[C@H](O)C/C1=C/C=C1\CCC[C@]2(C)[C@@H]([C@H](C)CCCC(C)C)CC[C@@H]12 [Vitamin D, cholecalciferol] |  |  |  |  |  |  | adverse effects [9]: No adverse effects |

— US8383578B2, “Peptides, derivatives and analogs thereof, and methods of using same” (CureDM Group Holdings, LLC, priority 2005, dated 2013)
